Assays:
20S proteasome = conditions: cited from earlier work
[1] = tested on: E. coli indicator strain ATCC 27856; assay: Antibacterial activity against E. coli indicator strain; format: cell-based; conditions: data not shown

In the case of `C=C(NC(=O)C(=C)NC(=O)c1csc(C2=N[C@@H]3c4csc(n4)[C@H]4NC(=O)c5csc(n5)[C@H]([C@](C)(O)[C@@H](C)O)NC(=O)[C@H]5CSC(=N5)/C(=C/C)NC(=O)[C@H]([C@@H](C)O)NC(=O)c5csc(n5)[C@]3(CC2)NC(=O)[C@H](C)NC(=O)C(=C)NC(=O)[C@H](C)NC(=O)[C@H]([C@@H](C)CC)N[C@@H]2C=Cc3c([C@H](C)O)cc(nc3[C@H]2O)C(=O)O[C@@H]4C)n1)C(N)=O` [Thiostrepton A], the “proteasome inhibitory properties (in words)” value (20S proteasome) is given as “active proteasome inhibitors” and the “antibacterial activity against E. coli” value [1] is given as “Neither thiostrepton A nor its Ala4 variants displayed any antibacterial activity”.
For `C/C=C(\NC(=O)c1csc(-c2csc(-c3ccc4c(n3)-c3csc(n3)[C@H]([C@@H](C)O)NC(=O)c3csc(n3)[C@H](C(C)C)NC(=O)c3csc(n3)/C(=C/C)NC(=O)[C@H]([C@@H](C)O)NC(=O)c3csc-4n3)n2)n1)C(=O)NC[C@@H](C)O` [micrococcin P1], the “proteasome inhibitory properties (in words)” value (20S proteasome) is given as “have not yet revealed any proteasome inhibitory properties”.
In the case of `C=C(NC(=O)C(=C)NC(=O)c1csc(C2=NC3c4csc(n4)[C@H]4NC(=O)c5csc(n5)[C@H]([C@](C)(O)[C@@H](C)O)NC(=O)[C@H]5CSC(=N5)/C(=C/C)NC(=O)[C@H]([C@@H](C)O)NC(=O)c5csc(n5)[C@@]3(CC2)NC(=O)[C@H](C)NC(=O)C(=C)NC(=O)C(=C)NC(=O)[C@H](C(C)C)N[C@@H]2C=Cc3c([C@H](C)O)cc(nc3[C@H]2O)C(=O)O[C@@H]4C)n1)C(N)=O` (some centres unmarked) [siomycin], the “proteasome inhibitory properties (in words)” value (20S proteasome) is given as “active proteasome inhibitors”.
For `C/C=C(\NC(=O)c1csc(-c2csc(-c3ccc4c(n3)-c3csc(n3)[C@H]([C@@H](C)O)NC(=O)c3csc(n3)[C@H](C(C)(C)O)NC(=O)c3csc(n3)/C(=C/C)NC(=O)[C@H]([C@@H](C)O)NC(=O)c3csc-4n3)n2)n1)C(=O)NC[C@@H](C)O` [thiocillin I], the “proteasome inhibitory properties (in words)” value (20S proteasome) is given as “have not yet revealed any proteasome inhibitory properties”.

Source: PMC4826033 (ACS chemical biology, 2015)
